Data set [1] has as its system T cells.
Data set [2] deals with relapsed or refractory (R/R) B-NHL, highly refractory large B-cell lymphoma. The settings on record: monotherapy, n=157; cited from earlier work.
Data set [3] has as its system CD20-expressing Raji-luc tumor cells. The settings on record: NOD-SCID mice injected with Raji-luc tumor cells and PBMCs; even in presence of excess IgG1-RTX-FEAR; cited from earlier work.
Data set [4] deals with primary DLBCL and follicular lymphoma patient biopsies. The settings on record: cited from earlier work.
For data set [5], the system named is T cells. The experiment in a line: T cell viability after 16 hours pre-incubation with CHP components. As to conditions: pretreatment of T cells, 16 hours (data not shown).

Where two headings read alike, the source gives them in different places.

On to `O=P1(N(CCCl)CCCl)NCCCO1` (stereo not drawn) [cyclophosphamide, 2H-1,3,2-Oxazaphosphorin-2-amine, N,N-bis(2-chloroethyl)tetrahydro-, 2-oxide], for which the T cell viability result in the data set with T cells [1] was “did not impact T cell viability”.
Regarding epcoritamab, in data set [2], the “complete response (CR) rate” value is recorded as 39%, the “median duration of response (DOR)” value was 12 months, the “overall response rate (ORR)” value is given as 63% and the safety profile result is recorded as “manageable safety profile”. In data set [3], the tumor growth entry is recorded as “effectively reduce tumor growth”. In data set [4] (biopsies taken a certain amount of time after administration of an anti-CD20 antibody), the T-cell-mediated cytotoxicity result is reported as “induced T-cell-mediated cytotoxicity”. Moreover, the tumor cell kill entry in data set [4] (biopsy taken 2 weeks after administering anti-CD20 antibody) is “up to 40%”.
Consider `COc1cccc2c1C(=O)c1c(O)c3c(c(O)c1C2=O)C[C@@](O)(C(=O)CO)C[C@@H]3O[C@H]1C[C@H](N)[C@H](O)[C@H](C)O1` [doxorubicin], for which the T cell viability result in the data set on T cells [5] is on record as “led to a reduction in T cell viability”.

Source of the values: patent publication US20230303693A1, “BISPECIFIC ANTIBODY AGAINST CD3 AND CD20 IN COMBINATION THERAPY FOR TREATING DIFFUSE LARGE B-CELL LYMPHOMA” (GENMAB A/S, priority 2022, published 2023).
